Experimental data: publication PMC8615111, “Phenolic Thiazoles with Antioxidant and Antiradical Activity. Synthesis, In Vitro Evaluation, Toxicity, Electrochemical Behavior, Quantum Studies and Antimicrobial Screening” (Antioxidants, 2021)
Read-outs that look alike come from different tables or passages of the source.

Key:
[1] = ABTS˙^+ radical scavenging assay; assay type: biochemical; conditions: for IC50: ABTS˙^+ scavenging
Experimental: The assay was based on the decolorization of green (2,2′-azinobis-(3-ethylbenzothiazoline-6-sulfonic acid) ABTS˙^+ to ABTS, on the principle reported by Re et al. and was carried out according to our previously published research.
Later, 1950 µL of ABTS˙^+ reagent was added to all cuvettes and they were shaken for well over 10 min in the dark at room temperature. The absorbance of the resulted solutions found in cuvettes was determined spectrophotometrically at λ = 734 nm. The ABTS scavenging activity of the compounds was calculated using the following Equation (1):(1) ABTS scavenging (%)=control absorbance−sample absorbance/control absorbance×100

[2] = DPPH˙ radical scavenging assay; assay type: biochemical; conditions: for IC50: DPPH˙ scavenging
Experimental: The 2,2-diphenyl-1-picrylhydrazyl (DPPH˙) radical scavenging assay is based on the transfer of one hydrogen from the analyzed compound to the violet radical DPPH˙. This will convert it to a yellow compound, the change in absorbance being proportional to the amount of DPPH˙ neutralized, according to Brand-Williams et al..
The preparation of the DPPH˙ reagent was previously reported by our group. […] Over the previous quantities, DMSO was added until a total volume of 50 µL was obtained in all cuvettes, and 1950 µL of DPPH˙ solution was added to all cuvettes; then, they were shaken for well over 10 min in the dark at room temperature. The absorbances of the solutions were measured at λ = 517 nm. The DPPH˙ radical scavenging activity of evaluated compounds was calculated using Equation (2):(2) DPPH scavenging (%)=control absorbance−sample absorbance/control absorbance×100

Cu^2+ chelation assay = assay type: biochemical
[3] = Ferric ions (Fe^3+) reducing antioxidant power by cyclic voltammetry; conditions: for Ered (V): 1st Ered; for Ired (μA): 1st Ired
Experimental: The evaluated compounds’ stock solutions used were prepared at a concentration of 5 mM. To test their redox properties, dilutions of 0.5 mM and 2 mM were prepared in 0.1 M HClO4 electrolyte (pH = 1.2). Screen-printed electrodes (SPEs; Metrohm DropSens, Oviedo, Spain) (planar electrodes) with graphite and gold working electrodes were used. Cyclic voltammetry (CV) and differential pulse voltammetry (DPV) were the electrochemical methods applied. The experimental conditions for each test are mentioned near the corresponding data (Appendix A).
(§1) The antioxidant properties were evaluated in terms of their activity against some free radicals, and other compounds reported in the literature, relevant for this purpose, such as: • ferric ions (Fe^3+)—used to test the reduction of the antioxidant character of the compounds; • DPPH˙ free radical– used to test the scavenging effect of the compounds on this radical; • hydrogen peroxide (H2O2)—used to test the scavenging effect of the synthesized molecules on this compound; • 2,2,6,6-tetramethylpiperidinyl-1-oxy (TEMPO)—used to test the scavenging effect of the synthesized molecules on this compound.
This method is based on the evaluation of the influence of the compound measured by the direct reduction of Fe[(CN)6]^3− to […]. This assay is based on the reduction of Fe^3+ to Fe^2+ due to the action of antioxidants. Based on the electrochemical behavior of the studied compounds, the interaction of Fe^3+ was followed by cyclic voltammetry (CV) via the possible changes of redox peaks characteristic for Fe^3+/Fe^2+ transition after the interaction with antioxidants (if any).
From the voltammogram of potassium ferricyanide it can be observed that the one-electron transfer process Fe^3+/Fe^2+ occurs at 0.247 V/ 0.150 V in acidic media (red) (Figure A1; Table A1).
Each compound presents its characteristic peaks (blue line in each figure).

[4] = DPPH˙ radical scavenging by cyclic voltammetry
Experimental: as §1
The radical scavenging properties of the novel compounds and the other antioxidants were determined using a stock DPPH˙ radical solution prepared in absolute ethanol. The antioxidant samples were mixed with DPPH˙ solution and HClO4 electrolyte and incubated in the dark for 30 min. The remaining redox activity of DPPH was measured by cycling the potential between −0.7 V and 1.2 V, with a scan rate of 0.1 V/s.
The nitrogen-centered 2-2-diphenyl-1-picrylhydrazyl radical (DPPH˙) based assay is one of the most commonly employed method to evaluate the ability of a compound to scavenge or neutralize free radicals based on the reduction of the radical.
Taking into account the redox activity of DPPH˙, its diminution by an antioxidant can also be followed by CV, which is expected to show changes in the voltammetric peaks. Figure A5 reports the electrochemical study of initial electrooxidation of DPPH˙ and the novel compounds compared to remaining peaks after their incubation for 30 min. The decrease of all the peaks after mixture incubation indicates the partial consumption of DPPH˙.

HaCaT cells = test: Cytotoxicity determination, MTT method; assay type: cell-based; conditions: Homo sapiens, HaCaT cells, MTT, 24 h
Experimental: To determine the cytotoxic action of the obtained compounds 5[…], and 8a-b, a normal human keratinocytes cell line was used (HaCaT keratinocytes, CLS-300493, Eppelheim, Germany). HaCaT cells were cultured in Dulbecco's Modified Eagle Media (DMEM) supplemented with 1% L-glutamine, 1% penicillin-streptomycin, and 5% fetal bovine serum. At 80% confluence, the cells were transferred to 96 well plates at a confluence of 12×10^3 cells/well and left to attach for 24 h at 37°C and 5% CO2 in a humidified atmosphere. […] After 24 h, the culture media was replaced with 100 μL of MTT solution at a final concentration of 5 μg/mL/well and left to interact with the cells for 2 h in the incubator. After this, the MTT solution was replaced with 100 μL of isopropanol, left to dissolve the formazan crystals for 5 min, and read at 550 and 630 nm using a BioTek Epoch plate reader (BioTek Instruments, Winooski, VT, USA) and Gen5 software (version 1.09).

[5] = compound + Fe^3+/Fe^2+, 2nd Eox
[6] = compound + Fe^3+/Fe^2+, 2nd Iox column
[7] = compound alone 0.5 mM in 0.1 M HClO4, 2nd Iox column
[8] = compound + DPPH, 30 min, 2nd Eox
[9] = compound alone, 2nd Ered column

Structure (SMILES): Br.C/C(=N\Nc1nc(-c2ccccc2)cs1)c1ccc(O)cc1O [Compound 6a, (E)-2-(1-(2,4-dihydroxyphenyl)ethylidene)-1-(4-phenylthiazol-2-yl)hydrazin-1-ium bromide]
- % of ABTS˙^+ Scavenged ([1]; 0.5 µg/mL): 4.75%
- % of ABTS˙^+ Scavenged ([1]; 0.75 µg/mL): 7.92%
- % of ABTS˙^+ Scavenged ([1]; 1 µg/mL): 12.68%
- % of ABTS˙^+ Scavenged ([1]; 1.5 µg/mL): 22.21%
- % of ABTS˙^+ Scavenged ([1]; 2.5 µg/mL): 36.01%
- IC50 [1]: 3.34 µg/mL
- % of DPPH˙ Scavenged ([2]; 1 µg/mL): 5.90%
- % of DPPH˙ Scavenged ([2]; 1.5 µg/mL): 9.07%
- % of DPPH˙ Scavenged ([2]; 2 µg/mL): 12.87%
- % of DPPH˙ Scavenged ([2]; 3 µg/mL): 19.88%
- % of DPPH˙ Scavenged ([2]; 5 µg/mL): 38.13%
- IC50 [2]: 6.56 µg/mL
- Chelation Capacity (%), cupric ions (Cu^2+ chelation assay; 3.36 µg/mL): 6.33%
- Chelation Capacity (%), cupric ions (Cu^2+ chelation assay; 6.72 µg/mL): 10.30%
- Chelation Capacity (%), cupric ions (Cu^2+ chelation assay; 10.08 µg/mL): 13.65%
- Chelation Capacity (%), cupric ions (Cu^2+ chelation assay; 13.44 µg/mL): 15.90%
- Chelation Capacity (%), cupric ions (Cu^2+ chelation assay; 16.80 µg/mL): 18.67%
- Ered (V) ([3]; compound + Fe^3+/Fe^2+): 0.142 V
- Ired (μA) ([3]; compound + Fe^3+/Fe^2+): −5.88 μA
- Eox (V) [3, 5]: 0.223 V
- Iox (μA) [3, 6]: 2.74 μA
- Eox (V) ([3]; compound + Fe^3+/Fe^2+, 3rd Eox column): 0.424 V
- Iox (μA) ([3]; compound + Fe^3+/Fe^2+, 3rd Iox column): 3.82 μA
- Iox (μA) [3, 7]: 3.04 μA
- Eox (V) ([3]; compound alone 0.5 mM in 0.1 M HClO4, 3rd Eox column): 0.586 V
- Iox (μA) ([3]; compound alone 0.5 mM in 0.1 M HClO4, 3rd Iox column): 6.79 μA
- Iox (μA) ([4]; compound + DPPH, 30 min): 18.21 μA
- Eox (V) [4, 8]: 0.379 V
- Eox (V) ([4]; compound alone 0.5 mM in 0.1 M HClO4, 1st Eox column): 0.232 V
- Iox (μA) ([4]; compound alone 0.5 mM in 0.1 M HClO4, 1st Iox column): 4.99 μA
- Ered (V) [4, 9]: 0.193 V
- Ired (μA) ([4]; compound alone, 2nd Ired): −4.16 μA
- Eox (V) ([4]; compound alone, 3rd Eox column): 0.565 V
- Iox (μA) ([4]; compound alone, 3rd Iox column): 4.37 μA
- IC50 (HaCaT cells; read-out: IC50): 312 µM
- IC50 (HaCaT cells; read-out: IC50 (µg/mL)): 127 µg/mL

Structure (SMILES): Br.Oc1ccc(/C=N/Nc2nc(-c3ccccc3)cs2)c(O)c1 [Compound 6b, (E)-2-(2,4-dihydroxybenzylidene)-1-(4-phenylthiazol-2-yl)hydrazin-1-ium bromide]
- % of ABTS˙^+ Scavenged ([1]; 0.5 µg/mL): 11.67%
- % of ABTS˙^+ Scavenged ([1]; 0.75 µg/mL): 17.45%
- % of ABTS˙^+ Scavenged ([1]; 1 µg/mL): 19.83%
- % of ABTS˙^+ Scavenged ([1]; 1.5 µg/mL): 28.56%
- % of ABTS˙^+ Scavenged ([1]; 2.5 µg/mL): 42.53%
- IC50 [1]: 2.97 µg/mL
- % of DPPH˙ Scavenged ([2]; 1 µg/mL): 10.60%
- % of DPPH˙ Scavenged ([2]; 1.5 µg/mL): 13.62%
- % of DPPH˙ Scavenged ([2]; 2 µg/mL): 17.23%
- % of DPPH˙ Scavenged ([2]; 3 µg/mL): 23.89%
- % of DPPH˙ Scavenged ([2]; 5 µg/mL): 41.22%
- IC50 [2]: 6.23 µg/mL
- Chelation Capacity (%), cupric ions (Cu^2+ chelation assay; 3.36 µg/mL): 3.84%
- Chelation Capacity (%), cupric ions (Cu^2+ chelation assay; 6.72 µg/mL): 6.80%
- Chelation Capacity (%), cupric ions (Cu^2+ chelation assay; 10.08 µg/mL): 10.44%
- Chelation Capacity (%), cupric ions (Cu^2+ chelation assay; 13.44 µg/mL): 14.34%
- Chelation Capacity (%), cupric ions (Cu^2+ chelation assay; 16.80 µg/mL): 17.07%
- Eox (V) ([3]; compound 0.5 mM + Fe^3+/Fe^2+ (0.5 mM potassium ferricyanide), 1st Eox column): 0.203 V
- Iox (μA) ([3]; compound 0.5 mM + Fe^3+/Fe^2+ (0.5 mM potassium ferricyanide), 1st Iox column): 2.48 μA
- Ered (V) ([3]; compound + Fe^3+/Fe^2+): 0.149 V
- Ired (μA) ([3]; compound + Fe^3+/Fe^2+): −8.26 μA
- Eox (V) [3, 5]: 0.325 V
- Iox (μA) [3, 6]: 44.78 μA
- Eox (V) ([3]; compound + Fe^3+/Fe^2+, 5th Eox): 0.879 V
- Iox (μA) ([3]; compound + Fe^3+/Fe^2+, 5th Iox column): 21.84 μA
- Eox (V) ([3]; compound alone 0.5 mM in 0.1 M HClO4, 2nd Eox): 0.386 V
- Iox (μA) [3, 7]: 37.55 μA
- Eox (V) ([3]; compound alone 0.5 mM in 0.1 M HClO4, 5th Eox): 0.894 V
- Iox (μA) ([3]; compound alone 0.5 mM in 0.1 M HClO4, 5th Iox column): 8.86 μA
- Iox (μA) ([4]; compound + DPPH, 30 min): 43.4 μA
- Ered (V) ([4]; compound + DPPH, 30 min, 1st Ered): 0.302 V
- Ired (μA) ([4]; compound + DPPH, 30 min, 1st Ired): −1.09 μA
- Eox (V) [4, 8]: 0.391 V
- Ered (V) ([4]; compound + DPPH, 30 min, 2nd Ered column): 0.425 V
- Ired (μA) ([4]; compound + DPPH, 30 min, 2nd Ired): −1.23 μA
- Iox (μA) ([4]; compound alone): 47.3 μA
- Eox (V) ([4]; compound alone, 2nd Eox): 0.391 V
- Ered (V) [4, 9]: 0.239 V
- Ired (μA) ([4]; compound alone, 2nd Ired): −7.045 μA
- IC50 (HaCaT cells; read-out: IC50): < 1.27 µM
- IC50 (HaCaT cells; read-out: IC50 (µg/mL)): < 0.5 µg/mL
